# Assay results: patent publication US7416724B2, “Diagnosis and treatment of diseases arising from defects in the tuberous sclerosis pathway” (The Regents of the University of Michigan, priority 2002, dated 2008)
# Entries after “also recorded” stand apart in the source; their conditions may differ. Like-named read-outs stand apart in the source and are kept apart here.
# How the values were obtained:
# [1] = tested on: S6K; assay: Phosphorylation of S6K, immunoblot with anti-phospho S6K antibody; type: cell-based; settings: for phosphorylation of S6K on T389: endogenous S6K
# Excerpt: (§1) Anti-S6K, anti-phospho S6K, anti-mTOR, anti-phospho mTOR, anti-Akt, anti-phospho Akt, antiphospho 4EBP-1 and anti-phospho ERK antibodies were from Cell Signalling Inc. Anti-TSC2 and anti-Myc antibodies were from Santa Cruz Biotechnology (Santa Cruz, Calif.). Anti-HA and anti-Flag antibodies were from Covance (Princeton, N.J.) and Sigma (St Louis, Mo.), respectively. HA-tagged S6K1 (II) and GST-S6 constructs were obtained from J. Blenis (Columbia Univ., NY, N.Y.). […] All other DNA constructs, including H-RasV12, PTEN, PTEN-CS, Akt, Akt-KM, Flag-ubiquitin and Flag-4E-BP1, were laboratory stock. All mutant constructs of TSC2 were created by PCR mutagenesis and verified by DNA sequencing. LY294002 was from Calbiochem (San Diego, Calif.); phosphatase was from New England Biolabs (Beverly, Mass.). MG132 was from the Peptide Institute. Cycloheximide and wortmannin were from Sigma. D-PBS was from Gibco. Rapamycin was from Cell Signalling.
# (§2) HEK293 cells were seeded and maintained in Dulbecco's modified Eagle's medium (DMEM) containing 10% fetal bovine serum (FBS). Transfection was performed in serum-free conditions using Lipofectamine reagent (Invitrogen, Carlsbad, Calif.) in accordance with the manufacturer's instructions. In brief, 4 h after transfection, the cells were recovered in DMEM containing 10% FBS for 16 h and then starved for […]. Cells were then lysed in lysis buffer (10 mM Tris-HCl at pH 7.5, 100 mM sodium chloride, 1% NP-40, 1% Triton X-100, 50 mM sodium fluoride, 2 mM EDTA, 1 mM phenyl methylsulphonyl fluoride, 10 g ml^−1 leupeptin and 10 g ml^−1 aprotinine) and immunoprecipitated with the indicated antibodies and protein G-Sepharose beads. Immunocomplexes were analyzed by SDS-polyacrylamide gel electrophoresis (PAGE).
# [2] = tested on: Akt; assay: Phosphorylation of Akt, immunoblot; type: cell-based
# Excerpt: as §1
# (§3) HEK293 cells were seeded and maintained in Dulbecco's modified Eagle's medium (DMEM) containing 10% fetal bovine serum (FBS). Transfection was performed in serum-free conditions using Lipofectamine reagent (Invitrogen, Carlsbad, Calif.) in accordance with the manufacturer's instructions. […] Immunocomplexes were analyzed by SDS-polyacrylamide gel electrophoresis (PAGE).
# [3] = tested on: TSC2; assay: TSC2 mobility shift on SDS-PAGE; type: cell-based; settings: for mobility of TSC2 / 2-DG induced mobility shift: HEK293 cells, 10 μM, added 30 minutes before 2-DG, FIG. 11C
# Description: as §2
# [4] = tested on: LEF (TSC2-/- epithelial) cells; assay: Cell death / apoptosis of LEF cells; type: cell-based; settings: vector and wild type TSC2 expressing LEF cells
# [5] = tested on: eukaryotic elongation factor 2 (eEF2); settings: Horman et al., 2002; cited from earlier work
# [6] = tested on: AMPK; settings: Corton et al., 1995; cited from earlier work
# [7] = tested on: S6K; settings: Kimura et al., 2003; Krause et al., 2002; cited from earlier work
# [8] = tested on: 4EBP1; assay: Phosphorylation of 4EBP1, immunoblot; type: cell-based
# Excerpt: as §1, §2
# [9] = tested on: S6K-dC104; assay: Thr 389 phosphorylation and kinase activity of rapamycin-resistant mutant S6K-dC104; type: cell-based; settings: FIG. 7a
# Description: For the S6K assays, HEK293 cells grown in six-well plates were transfected with 10-20 ng HA-S6K constructs, with or without various plasmids, as indicated in the figures. HA-S6K was immunoprecipitated from serum-starved cells with an anti-HA antibody and analyzed by in vitro kinase assay using purified GST-S6 as a substrate (Pearson et al., EMBO J. 14, 5279-5287 (1995)).
# [10] = tested on: S6; assay: Phosphorylation of S6, immunoblot; type: cell-based; settings: FIG. 8C
# Description: as §2
# [11] = tested on: intracellular ATP; assay: Intracellular ATP levels and AMP/ATP ratio; type: cell-based; settings: cells treated with 25 mM
# [12] = tested on: AMPK; assay: AMPK activation (T172 phosphorylation); type: cell-based; settings: 25 mM
# [13] = tested on: intracellular ATP; settings: concentrations between 20 and 100 mM (Dennis et al., 2001); cited from earlier work
# [14] = tested on: mTOR; assay: Phosphorylation of mTOR at Ser 2448, immunoblot with anti-phospho-mTOR antibody; type: cell-based; settings: 25 mM, FIG. 8C
# Excerpt: as §1, §3
# [15] = tested on: 4EBP1; settings: concentrations between 20 and 100 mM (Dennis et al., 2001); cited from earlier work
# [16] = tested on: HEK293 cells; assay: Cell size of HEK293 cells; type: cell-based; settings: 12.5 mM 2-DG, TSC2 RNAi, or 20 nM rapamycin for 72 hours, FIG. 14D
# [17] = tested on: TSC1; assay: TSC1 mobility on SDS-PAGE; type: cell-based; settings: FIG. 11A
# Description: as §2
# [18] = tested on: S6K; settings: concentrations between 20 and 100 mM (Dennis et al., 2001); cited from earlier work
# [19] = tested on: AMPK and TSC2; assay: Co-immunoprecipitation of AMPK and TSC2; type: cell-based
# Description: as §2
# [20] = tested on: TSC2; assay: In vivo 32P-labelling and two-dimensional phosphopeptide mapping of TSC2; type: cell-based, rat
# Description: HEK293 cells were cotransfected with HA-tagged TSC2, Myc-tagged TSC1 and the indicated plasmids. Cells were phosphate- and serum-starved for 4 h before incubation with 0.25 mCi ml^−1 32P-orthophosphate (ICN) for 4 h.
# Cells were washed once with ice-cold PBS and lysed. HA-tagged TSC2 was immunoprecipitated, resolved by SDS-PAGE and transferred to a PVDF membrane. Phosphorylated TSC2 was visualized by autoradiography and phosphopeptide mapping was then performed. In brief, the phosphorylated TSC2 bands were excised, fixed in methanol and incubated in 500 1 of 0.5% polyvinylpyrrolidone-40 dissolved in 100 mM acetic acid for 30 min at 37° C. The sample were then digested with 20 g of TPCK-treated trypsin (Sigma) at 37° C. in 75 mM ammonium bicarbonate buffer at pH 8.0 containing 5% acetonitrile. After digestion, samples were dried under vacuum and suspended in 10 1 of water. Samples were spotted onto a cellulose plate and first dimensional electrophoresis was performed using 1% ammonium bicarbonate buffer at pH 8.9. The plates were separated by chromatography in the second dimension in chromatography buffer (n-butanol:pyridine:acetic acid:water; 20:24:6:30). The plates were dried and phosphopeptides were visualized by autoradiography.
# [21] = depletion of cellular ATP, FIG. 8A
# [22] = EEF8 (TSC2-/-) fibroblasts, vector infected, FIG. 13C
# [23] = EEF8 cells expressing wild type TSC2, FIG. 13C
compound,measurement,setting,value
c1cc(-c2cnn3cc(-c4ccc(OCCN5CCCCC5)cc4)cnc23)ccn1 [Compound C],S6K dephosphorylation induced by glucose deprivation,"[1]; FIG. 11F, listed as AMPK inhibitor",significantly blocked; also recorded: partially blocks
same,inhibitory effect of 2-DG on S6K phosphorylation,"[1]; HEK 293 cells, FIG. 11E, listed as AMPK inhibitor",significantly reversed; also recorded: blocks the 2-DG induced dephosphorylation
same,Akt phosphorylation,"[2]; HEK 293 cells, AMPK inhibitor treatment",had no effect
same,mobility of TSC2 / 2-DG induced mobility shift,[3],blocks the 2-DG induced mobility shift
same,mobility of TSC2 / 2-DG induced mobility shift,[3]; listed as compound C,increased the mobility
COc1cc([C@@H]2c3cc4c(cc3[C@@H](O[C@@H]3O[C@@H]5CO[C@@H](C)O[C@H]5[C@H](O)[C@H]3O)[C@H]3COC(=O)[C@H]23)OCO4)cc(OC)c1O [etoposide],cell death,[4],caused cell death
"NC(=O)c1ncn([C@@H]2O[C@H](COP(=O)(O)O)[C@@H](O)[C@H]2O)c1N [AICAR, 5-aminoimidazole-4-carboxyamide ribonucleotide]",phosphorylation of eEF2,[5],increase phosphorylation
same,AMPK activation,[6],activate AMPK
same,S6K activity,[7],inhibit S6K activity
CC(=O)c1c(O)c(C)c(O)c(Cc2c(O)c3c(c(C(=O)/C=C/c4ccccc4)c2O)OC(C)(C)C=C3)c1O [Rottlerin],S6K phosphorylation,"[1]; EEF4 (TSC2+/+) fibroblasts, FIG. 10F",caused a decrease
same,phosphorylation of S6K,[1]; [21],caused a dephosphorylation
same,phosphorylation of 4EBP1,[8]; [21],caused a dephosphorylation
CO[C@H]1C[C@@H]2CC[C@@H](C)[C@@](O)(O2)C(=O)C(=O)N2CCCC[C@H]2C(=O)O[C@H]([C@H](C)C[C@@H]2CC[C@@H](O)[C@H](OC)C2)CC(=O)[C@H](C)/C=C(\C)[C@@H](O)[C@@H](OC)C(=O)[C@H](C)C[C@H](C)/C=C/C=C/C=C/1C [rapamycin],phosphorylation of Thr 389 in S6K-dC104,[9],not inhibited
N#CC(C#N)=NNc1ccc(OC(F)(F)F)cc1 [FCCP],S6K phosphorylation,[1],caused a decrease
same,phosphorylation of S6K,[1],caused a dephosphorylation
same,phosphorylation of 4EBP1,[8],caused a dephosphorylation
"O=CC[C@@H](O)[C@H](O)[C@H](O)CO [2-DG, 2-deoxy-glucose]",phosphorylation of S6K on T389,"[1]; 25 mM, FIG. 8C",effectively inhibited; also recorded: dephosphorylation
same,S6K phosphorylation as a function of treatment time,"[1]; 25 mM, time course, FIG. 8E",concomitant dephosphorylation
same,S6K phosphorylation,[1]; [22],caused little decrease
same,S6K phosphorylation,[1]; [23],significantly decreased
same,phosphorylation of S6K,[1]; [21],caused a dephosphorylation
same,phosphorylation of endogenous S6,[10],dephosphorylation
same,4EBP1 phosphorylation,"[8]; EEF4 (TSC2+/+) cells, FIG. 10G",inhibition of phosphorylation
same,4EBP1 phosphorylation,[8]; [22],caused little decrease
same,4EBP1 phosphorylation,[8]; [23],significantly decreased
same,phosphorylation of endogenous 4EBP1,[8]; FIG. 8C,specifically inhibits; also recorded: dephosphorylation
same,phosphorylation of 4EBP1,[8]; [21],caused a dephosphorylation
same,ATP levels,[11]; FIG. 8F,statistically significant reduction; also recorded: decreases
same,AMP/ATP ratio,[11]; FIG. 8G,increases
same,T172 phosphorylation in AMPK,[12]; FIG. 8D,dramatic increase; also recorded: induces phosphorylation
same,AMPK activation as a function of treatment time,"[12]; time course, FIG. 8E",rapid AMPK activation
same,reduction of intracellular ATP levels,[13],20 to 50%
same,phosphorylation of mTOR S2448,[14],inhibited; also recorded: dephosphorylation
same,4EBP1 phosphorylation,[15],inhibition
same,Akt phosphorylation,"[2]; 25 mM, FIG. 8C",had little effect
same,mobility shift of TSC2,[3]; FIG. 11A,mobility shift
same,phosphorylation of eEF2,[5],increase phosphorylation
same,cell size,[16],decreases cell size; also recorded: significantly decreased cell size
same,AMPK activation,[6],activate AMPK
same,mobility of TSC1,[17],did not alter the mobility
same,S6K phosphorylation,[18],inhibition
same,S6K activity,[7],inhibit S6K activity
same,interaction between endogenous AMPK and overexpressed TSC2,[19]; FIG. 9D,enhances the interaction
same,interaction between endogenous AMPK and TSC2 (co-immunoprecipitation),"[19]; HEK293 cells, FIG. 9A, B",interact preferentially; also recorded: enhanced; also recorded: stimulates the interaction
same,phosphorylation of TSC2 phosphopeptides,"[20]; 25 and 40 mM, FIG. 12A",enhanced phosphorylation of several peptides; also recorded: induce TSC2 phosphorylation on multiple spots
OC[C@@H](O)[C@@H](O)[C@H](O)[C@H](O)CO [mannitol],phosphorylation of S6K on T389,"[1]; 25 mM, FIG. 8C",had little effect
same,phosphorylation of S6K,"[1]; 100 mM, FIG. 8C",significantly inhibited
"insulin: stimulus of the insulin-Akt pathway, used at 400 nM","phosphorylation of Thr 389, Thr 421 and Ser 424 of S6K",[1]; FIG. 1b,stimulated
same,phosphorylation of TSC2 phosphopeptides,"[20]; insulin (400 nM), LY294002 or rapamycin (20 nM), FIG. 3c",slightly increased phosphorylation
